Legend:
Experiment in all cases: crystal violet assay, antiproliferative effect against tumor cells
Format in all cases: cell-based
[1] = system: pancreatic tumor cell line Panc89; conditions: Panc89, at 1 μg/mL, on average
Experimental: (§1) 4) Determination of the Antiproliferative Effect Against Tumor Cells
(§2) The substances Scopularid A and Scopularid B have shown significant inhibitory action against tumor cell lines, in particular pancreatic tumor cell lines Colo357 and Panc89 and also intestinal tumor cell lines HT29 (on average an inhibition between 25-50% at 1 μg/mL). This activity was determined using the crystal violet assay (Siegmund, D. et al. “Death receptor-induced signalling pathways are differentially regulated by gamma interferon upstream of caspase 8 processing.” Mol. Cell. Biol. 2005; 25: 6363-6379).

[2] = system: intestinal tumor cell line HT29; conditions: Homo sapiens, HT-29; HT29, at 1 μg/mL, on average
Experimental: as §1, §2

[3] = system: pancreatic tumor cell line Colo357; conditions: for inhibition at 1 µg/mL: Homo sapiens, Colo357, at 1 μg/mL, on average
Experimental: as §1, §2

SMILES	inhibition at 1 µg/mL [1] [%]	inhibition at 1 µg/mL [2] [%]	inhibition at 1 µg/mL [3] [%]	antiproliferative effect against tumor cells (in words) ([3]; tumor cell lines, in particular Colo357)
CCCCCCC(C)C1CC(=O)NCC(=O)N[C@@H](C(C)C)C(=O)N[C@H](CC(C)C)C(=O)N[C@@H](C)C(=O)N[C@@H](Cc2ccccc2)C(=O)O1 (stereo partly shown) [Scopularid A]	25 to 50	25 to 50	25 to 50	
CCCCC(C)C1CC(=O)NCC(=O)N[C@@H](C(C)C)C(=O)N[C@H](CC(C)C)C(=O)N[C@@H](C)C(=O)N[C@@H](Cc2ccccc2)C(=O)O1 (stereo partly shown) [Scopularid B]	25 to 50	25 to 50	25 to 50	significant inhibitive effect

From patent US8772445B2, “Production and use of antitumoral cyclodepsipeptides” (Helmholtz-Zentrum Fuer Ozeanforschung Kiel (Geomar), priority 2008, dated 2014)
